Source: US8192962B2, “Processes for detecting toxic substances” (Daikin Industries, Ltd., priority 2001, dated 2012)

Test system: Mitochondria-located protein genes
Assay: DNA chip mRNA expression in yeast, mitochondria-located protein genes (Table 2)
Format: cell-based, Saccharomyces cerevisiae S288C
Conditions: cells incubated two hours with the chemical substance
In short: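 Measured as treated-to-untreated fluorescence ratio on a full-genome yeast DNA chip. Cells (S288C, YPD, 25° C.) were exposed in log phase for two hours to one chemical, dosed to curb growth without killing.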

Measured: The level of expressed mRNA in the presence of chemical substance/The level of expressed mRNA in the absence of chemical substance

CCCCCCCCCCCCc1ccc(S(=O)(=O)[O-])cc1.[Na+] [(17), sodium dodecylbenzosulfonate]
0.5: yeast gene YLR304C
1.1: yeast gene YJR121W | yeast gene YKL170W | yeast gene YKL194C | yeast gene YLL041C | yeast gene YLR348C | yeast gene YML054C | yeast gene YMR023C | yeast gene YPL262W | yeast gene YPR024W
1.4: yeast gene YOR020C
0.6: yeast gene YNL256W
1.5: yeast gene YMR152W | yeast gene YOR130C | yeast gene YPL135W
2.4: yeast gene YKL142W
0.8: yeast gene YKL148C | yeast gene YLR259C | yeast gene YMR203W | yeast gene YNL073W | yeast gene YOR187W | yeast gene YOR316C | yeast gene YPL040C
1.3: yeast gene YML129C | yeast gene YPL134C
0.9: yeast gene YKL141W | yeast gene YKR066C | yeast gene YLR295C | yeast gene YMR083W | yeast gene YMR089C | yeast gene YMR267W | yeast gene YNL104C | yeast gene YOR100C | yeast gene YOR142W | yeast gene YOR150W
2.2: yeast gene YMR035W
1.0: yeast gene YKL003C | yeast gene YKL016C | yeast gene YML120C | yeast gene YNL071W | yeast gene YPL215W | yeast gene YPR047W | yeast gene YPR134W
1.2: yeast gene YLR038C | yeast gene YLR395C | yeast gene YNL055C | yeast gene YOL096C | yeast gene YOR037W | yeast gene YOR176W | yeast gene YPR037C
